Measured values published in publication PMC4322967, “Afatinib circumvents multidrug resistance via dually inhibiting ATP binding cassette subfamily G member 2 in vitro and in vivo” (Oncotarget, 2014).

Tests used:
Type in all cases: cell-based
[1] = biological target: T1, ABCG2 (Homo sapiens, UniProt Q9UNQ0); experiment: vanadate-sensitive ATPase assay in crude membranes; also 5D3 shift and PhA efflux inhibition in HEK293/ABCG2 cells; parameters: crude membranes from ABCG2-expressing High Five insect cells
T1 sequence (Q9UNQ0 1-655): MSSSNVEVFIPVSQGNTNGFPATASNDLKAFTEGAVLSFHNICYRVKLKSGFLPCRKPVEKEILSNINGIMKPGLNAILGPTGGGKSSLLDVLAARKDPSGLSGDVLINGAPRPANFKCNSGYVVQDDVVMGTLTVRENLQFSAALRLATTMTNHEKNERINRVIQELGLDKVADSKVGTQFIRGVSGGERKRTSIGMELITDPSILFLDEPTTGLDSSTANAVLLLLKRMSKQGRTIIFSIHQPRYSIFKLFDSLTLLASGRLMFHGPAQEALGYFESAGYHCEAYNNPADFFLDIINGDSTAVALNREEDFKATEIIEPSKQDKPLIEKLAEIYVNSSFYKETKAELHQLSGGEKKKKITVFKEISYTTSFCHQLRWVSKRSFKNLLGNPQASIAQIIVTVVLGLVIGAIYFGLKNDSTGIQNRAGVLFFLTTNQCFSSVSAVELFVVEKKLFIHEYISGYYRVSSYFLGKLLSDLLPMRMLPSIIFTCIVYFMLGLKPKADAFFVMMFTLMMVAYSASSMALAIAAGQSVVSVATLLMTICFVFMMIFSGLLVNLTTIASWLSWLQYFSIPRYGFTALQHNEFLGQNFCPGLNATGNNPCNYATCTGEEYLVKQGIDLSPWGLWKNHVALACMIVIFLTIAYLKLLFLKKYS

[2] = biological target: T1, ABCG2; parameters: ABCG2-stably transfected HEK293 cells
[3] = biological target: T1, ABCG2; experiment: 5D3 conformational antibody shift at […], flow cytometry; parameters: ABCG2-stably transfected HEK293 cells
[4] = biological target: T1, ABCG2; experiment: flow cytometry efflux of […] PhA in HEK293/ABCG2 versus pcDNA3 cells; parameters: HEK293 cells stably transfected with ABCG2
[5] = biological target: T1, ABCG2; experiment: 5D3 conformational antibody shift at […], flow cytometry; parameters: ABCG2-stably transfected HEK293 cells; remark: listed apart in the source

CN(C)C/C=C/C(=O)Nc1cc2c(Nc3ccc(F)c(Cl)c3)ncnc2cc1O[C@H]1CCOC1 [Afatinib]
vanadate-sensitive ATPase assay in crude membranes; also 5D3 shift and PhA efflu [1]: afatinib was found to inhibit the ATPase activity of ABCG2 in a dose dependent manner

C#Cc1cccc(Nc2ncnc3cc(OCCOC)c(OCCOC)cc23)c1 [erlotinib]
5D3 conformational antibody shift at 10 μM, flow cytometry [2]: Other known ABCG2 inhibitors (including FTC, tariquidar and erlotinib) tested were also shown to notably increase 5D3 labeling

COc1ccc2c3c([nH]c2c1)[C@H](C=C(C)C)N1C(=O)[C@@H]2CCCN2C(=O)[C@@H]1C3 [fumitremorgin C]
5D3 conformational antibody shift at 5 μM, flow cytometry [3]: Other known ABCG2 inhibitors (including FTC, tariquidar and erlotinib) tested were also shown to notably increase 5D3 labeling

C=Cc1c(C)c2cc3nc(c4c5[nH]c(cc6nc(cc1[nH]2)C(C)=C6CC)c(C)c5C(=O)[C@@H]4C(=O)OC)[C@@H](CCC(=O)O)[C@@H]3C [pheophorbide A]
flow cytometry efflux of 1 μM PhA in HEK293/ABCG2 versus pcDNA3 cells [4]: fluorescent ABCG2 probe substrate (pheophorbide A, PhA) for efflux was studied in HEK293/ABCG2 cells by flow cytometry analysis

COc1cc2c(cc1OC)CN(CCc1ccc(NC(=O)c3cc(OC)c(OC)cc3NC(=O)c3cnc4ccccc4c3)cc1)CC2 [tariquidar]
5D3 conformational antibody shift at 1 μM, flow cytometry [5]: Other known ABCG2 inhibitors (including FTC, tariquidar and erlotinib) tested were also shown to notably increase 5D3 labeling
